Key:
[1] = test system: Cph001^D189A; assay: Coupled enzyme assay of Cph001 variant; type: biochemical, Streptosporangium roseum; details: for absorbance at 340 nm, Average of triplicate: 2 mM substrate + ATP
Experimental: (§1) The phosphorylation reaction was measured by a coupled enzyme assay as following. The reaction 1, performed by 0.77 μM Cph001 with 2 mM antibiotic substrates (CMN IIA, CMN IIB, VIO, Kan, or Ery), was coupled to the reaction 2 and 3 in the presence of 4 U PK (pyruvate kinase from rabbit muscle, Merck), 4 U LDH (lactate dehydrogenase from rabbit muscle, Merck), 2 mM ATP or GTP, 2 mM PEP (phosphoenolpyruvate), 0.5 mM NADH, 40 mM KCl and 5 mM MgCl2 in a reaction buffer containing 400 mM NaCl and 20 mM Tris buffer at pH 8.0. The reactions were mixed well in a final volume of 200 μL in 96-well plates. The Cph001 activity was assayed by determining the oxidation of NADH at 340 nm. The reaction buffer and enzyme concentration of the Cph reaction was followed by previous study. The 340 nm absorbance changes were detected at 30 °C for every 1 min at a time in 15 min on an EPOCH Microplate Reader (BioTek). All reactions were carried out in triplicate.

[2] = test system: Cph001^D189N; assay: Coupled enzyme assay of Cph001 variant; type: biochemical, Streptosporangium roseum; details: for absorbance at 340 nm, Average of triplicate: 2 mM substrate + ATP
Experimental: as §1

[3] = test system: Cph; assay: Coupled enzyme assay and kinetics of Cph; type: biochemical, Saccharothrix mutabilis subsp. capreolus; details: for absorbance at 340 nm, Average of triplicate: substrate + ATP
Experimental: The phosphorylation reaction was measured by a coupled enzyme assay as following. […] The reactions were mixed well in a final volume of 200 μL in 96-well plates. The Cph001 activity was assayed by determining the oxidation of NADH at 340 nm. The reaction buffer and enzyme concentration of the Cph reaction was followed by previous study. The 340 nm absorbance changes were detected at 30 °C for every 1 min at a time in 15 min on an EPOCH Microplate Reader (BioTek). All reactions were carried out in triplicate.

[4] = test system: E. coli/pET-22b (Control); assay: Disk diffusion assay; type: cell-based, E. coli BL21 Rosetta (DE3); details: Escherichia coli, 24 h, read-out: inhibition zones
Experimental: The E. coli BL21 Rosetta (DE3) strains containing pET22b, and its carrying cph, cph001, cph002, cph003, aph(3′)-Ia, and mphB plasmids were cultured overnight. The cells, respectively, were then diluted to 0.1 OD600 in molten LB agar with 100 μg/mL ampicillin and 500 μM IPTG for the disk diffusion assay. The cells with ampicillin and IPTG were mixed well with molten LB agar and then poured into 10 cm diameter Petri dishes. […] The Petri dishes were placed in the incubator at 37 °C and the inhibition zones were observed after 24 hr.

[5] = test system: E. coli/cph003; assay: Disk diffusion assay; type: cell-based, E. coli BL21 Rosetta (DE3)
Experimental: (§2) The E. coli BL21 Rosetta (DE3) strains containing pET22b, and its carrying cph, cph001, cph002, cph003, aph(3′)-Ia, and mphB plasmids were cultured overnight. The cells, respectively, were then diluted to 0.1 OD600 in molten LB agar with 100 μg/mL ampicillin and 500 μM IPTG for the disk diffusion assay. The cells with ampicillin and IPTG were mixed well with molten LB agar and then poured into 10 cm diameter Petri dishes. The 7 mm disks were placed onto the LB agar and gently loaded with varying quantities of CMN IIA, CMN IIB, VIO, Kan, and Ery, ranging from 0 to 200 μg. The Petri dishes were placed in the incubator at 37 °C and the inhibition zones were observed after 24 hr.

[6] = test system: E. coli/cph002; assay: Disk diffusion assay; type: cell-based, E. coli BL21 Rosetta (DE3)
Experimental: as §2

[7] = test system: E. coli/cph; assay: Disk diffusion assay; type: cell-based, E. coli BL21 Rosetta (DE3)
Experimental: as §2

[8] = test system: E. coli/cph001; assay: Disk diffusion assay; type: cell-based, E. coli BL21 Rosetta (DE3)
Experimental: as §2

[9] = Escherichia coli, 24 h, read-out: inhibition zones

In the case of `N=C1NCCC([C@@H]2NC(=O)/C(=C/NC(N)=O)NC(=O)[C@H](CNC(=O)C[C@@H](N)CCCN)NC(=O)[C@H](CO)NC(=O)[C@@H](N)CNC2=O)N1` (stereo in doubt) [CMN IIA], the “phosphotransferase activity of variant” value ([1]; CMN IIA + ATP) is reported as “complete loss of phosphotransferase activity”, the “absorbance at 340 nm, Average of triplicate” value (“absorbance at 340 nm, Average” for short) ([1]; time 00:00:00) is reported as 1.495 and the “absorbance at 340 nm, Average” value ([1]; time 00:01:00) is reported as 1.482. The “absorbance at 340 nm, Average” value ([1]; time 00:02:00) was 1.504, the “absorbance at 340 nm, Average” value ([1]; time 00:03:00) was 1.549 and the “absorbance at 340 nm, Average” value ([1]; time 00:04:00) was 1.574. The “absorbance at 340 nm, Average” value ([1]; time 00:05:00) was 1.588, the “absorbance at 340 nm, Average” value ([1]; time 00:06:00) was 1.596 and the “absorbance at 340 nm, Average” value ([1]; time 00:07:00) was 1.602. For the same compound, the “absorbance at 340 nm, Average” value ([1]; time 00:08:00) was 1.612, the “absorbance at 340 nm, Average” value ([1]; time 00:09:00) was 1.625 and the “absorbance at 340 nm, Average” value ([1]; time 00:10:00) was 1.641. For the same compound, the “absorbance at 340 nm, Average” value ([1]; time 00:11:00) was 1.654, the “absorbance at 340 nm, Average” value ([1]; time 00:12:00) was 1.662 and the “absorbance at 340 nm, Average” value ([1]; time 00:13:00) was 1.67. For the same compound, the “absorbance at 340 nm, Average” value ([1]; time 00:14:00) was 1.682, the “absorbance at 340 nm, Average” value ([1]; time 00:15:00) was 1.69 and the “phosphotransferase activity of variant” value ([2]; CMN IIA + ATP) was “complete loss of phosphotransferase activity”. For the same compound, the “absorbance at 340 nm, Average” value ([2]; time 00:00:00) was 1.495, the “absorbance at 340 nm, Average” value ([2]; time 00:01:00) was 1.553 and the “absorbance at 340 nm, Average” value ([2]; time 00:02:00) was 1.591. For the same compound, the “absorbance at 340 nm, Average” value ([2]; time 00:03:00) was 1.622, the “absorbance at 340 nm, Average” value ([2]; time 00:04:00) was 1.655 and the “absorbance at 340 nm, Average” value ([2]; time 00:05:00) was 1.685. For the same compound, the “absorbance at 340 nm, Average” value ([2]; time 00:06:00) was 1.709, the “absorbance at 340 nm, Average” value ([2]; time 00:07:00) was 1.733 and the “absorbance at 340 nm, Average” value ([2]; time 00:08:00) was 1.755. The “absorbance at 340 nm, Average” value ([2]; time 00:09:00) was 1.775, the “absorbance at 340 nm, Average” value ([2]; time 00:10:00) was 1.791 and the “absorbance at 340 nm, Average” value ([2]; time 00:11:00) was 1.804. For the same compound, the “absorbance at 340 nm, Average” value ([2]; time 00:12:00) was 1.814, the “absorbance at 340 nm, Average” value ([2]; time 00:13:00) was 1.823 and the “absorbance at 340 nm, Average” value ([2]; time 00:14:00) was 1.83. The “absorbance at 340 nm, Average” value ([2]; time 00:15:00) was 1.791, the “phosphorylation by Cph in couple enzyme assay” value ([3]; CMN IIA and ATP, absorbance at 340 nm) was “decrease in absorbance at 340 nm” and the “absorbance at 340 nm, Average” value ([3]; time 00:00:00) was 1.495. The “absorbance at 340 nm, Average” value ([3]; time 00:01:00) was 1.379, the “absorbance at 340 nm, Average” value ([3]; time 00:02:00) was 1.219 and the “absorbance at 340 nm, Average” value ([3]; time 00:03:00) was 1.045. The “absorbance at 340 nm, Average” value ([3]; time 00:04:00) was 0.85, the “absorbance at 340 nm, Average” value ([3]; time 00:05:00) was 0.6453 and the “absorbance at 340 nm, Average” value ([3]; time 00:06:00) was 0.4483. For the same compound, the “absorbance at 340 nm, Average” value ([3]; time 00:07:00) was 0.303, the “absorbance at 340 nm, Average” value ([3]; time 00:08:00) was 0.2213 and the “absorbance at 340 nm, Average” value ([3]; time 00:09:00) was 0.1687. The “absorbance at 340 nm, Average” value ([3]; time 00:10:00) was 0.136, the “absorbance at 340 nm, Average” value ([3]; time 00:11:00) was 0.1227 and the “absorbance at 340 nm, Average” value ([3]; time 00:12:00) was 0.1173. For the same compound, the “absorbance at 340 nm, Average” value ([3]; time 00:13:00) was 0.1173, the “absorbance at 340 nm, Average” value ([3]; time 00:14:00) was 0.1173 and the “absorbance at 340 nm, Average” value ([3]; time 00:15:00) was 0.1177. It also gave a zone of inhibition at 12.5 µg/disc [4] of 17 mm, a zone of inhibition at 50 µg/disc [4] of 22 mm and a zone of inhibition at 100 µg/disc [4] of 24 mm. For the same compound, the zone of inhibition at 200 µg/disc [4] was 27.5 mm, the “resistance in disk diffusion assay” value ([5]; E. coli harboring cph003) was “becomes resistant” and the zone of inhibition at 12.5 µg/disc [5, 9] was 13 mm. The zone of inhibition at 50 µg/disc [5, 9] was 16 mm, the zone of inhibition at 100 µg/disc [5, 9] was 20 mm and the zone of inhibition at 200 µg/disc [5, 9] was 22 mm. For the same compound, the “resistance in disk diffusion assay” value ([6]; E. coli harboring cph002) was “becomes resistant”, the zone of inhibition at 12.5 µg/disc [6, 9] was 14 mm and the zone of inhibition at 50 µg/disc [6, 9] was 17 mm. For the same compound, the zone of inhibition at 100 µg/disc [6, 9] was 19.5 mm, the zone of inhibition at 200 µg/disc [6, 9] was 23 mm and the “resistance in disk diffusion assay” value ([7]; E. coli harboring cph) was “becomes resistant”. For the same compound, the zone of inhibition at 50 µg/disc [7, 9] was 11 mm, the zone of inhibition at 100 µg/disc [7, 9] was 13 mm and the zone of inhibition at 200 µg/disc [7, 9] was 15.5 mm. For the same compound, the “resistance in disk diffusion assay” value ([8]; E. coli harboring cph001) was “becomes resistant”, the zone of inhibition at 12.5 µg/disc [8, 9] was 9.5 mm and the zone of inhibition at 50 µg/disc [8, 9] was 13 mm. For the same compound, the zone of inhibition at 100 µg/disc [8, 9] was 15 mm and the zone of inhibition at 200 µg/disc [8, 9] was 18 mm.

From paper PMC10730852 (Communications Biology, 2023)
